Results taken from US20250236629A1, “MEDIUM- OR MACRO-CYCLIC BENZYL-SUBSTITUTED HETEROCYCLE DERIVATIVES AND RELATED USES” (CENTESSA PHARMACEUTICALS (UK) LIMITED, priority 2022, published 2025).

Molecular target: T1, human orexin type 2 receptor (hOX2R) (Homo sapiens, UniProt O43614)
T1 construct: the Orexin receptor cDNA was inserted into pcDNA3.1(+) plasmid vector; expressed in transfected cells
T1 sequence (O43614 1-444): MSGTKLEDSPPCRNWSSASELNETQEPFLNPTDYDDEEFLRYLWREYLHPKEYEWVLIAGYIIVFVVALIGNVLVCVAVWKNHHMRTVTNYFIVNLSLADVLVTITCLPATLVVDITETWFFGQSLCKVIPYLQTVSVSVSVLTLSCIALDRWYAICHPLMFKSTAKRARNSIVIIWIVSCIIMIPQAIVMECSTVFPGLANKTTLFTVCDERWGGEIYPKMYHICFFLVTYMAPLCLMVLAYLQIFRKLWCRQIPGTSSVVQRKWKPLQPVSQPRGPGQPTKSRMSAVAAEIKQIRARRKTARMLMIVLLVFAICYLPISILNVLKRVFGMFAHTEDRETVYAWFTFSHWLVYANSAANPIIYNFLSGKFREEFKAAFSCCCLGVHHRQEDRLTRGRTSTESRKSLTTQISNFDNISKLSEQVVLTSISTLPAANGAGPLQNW
Assay: Orexin type 2 receptor agonist activity, intracellular Ca2+ (FLIPR TETRA) in CHO cells
Assay type: cell-based
Conditions: CHO cells expressing hOX2R, Ca2+ fluorescence area, 100% = 10 nM human orexin A; for EC50: read-out: hOx2 pEC50 (converted)
Experimental: Stable cell line generation. Obtainment of cells stably expressing either human orexin type 2 or human orexin type 1 receptor: to obtain a stable cell line the Orexin receptor cDNA was inserted into pcDNA3.1(+) plasmid vector and clones identified by G418 drug resistance selection. […] A single clone for OX2R—CHO and OX1R—CHO were grown in bulk and frozen to generate a cell bank for routine screening.
Measurement of orexin type 2 receptor agonist activity. Chinese hamster ovary (CHO) cells expressing human orexin type 2 receptor (hOX2R) or human orexin type 1 receptor (hOX1R) were seeded in each well of 384 well black clear bottom plates (BD Flacon) at 10,000 cells per well and cultured for 24 hr in an Ham's F12 (Gibco) medium containing 10% fetal calf serum (Sigma Aldrich) under the conditions of 37° C., 5% CO2. After removal of the medium, 50 μl of assay buffer 1 (0.1% bovine serum albumin (Sigma Aldrich), 20 mM HEPES (Molecular Dimensions), […] probenecid (Sigma Aldrich), 1× Calcium 5 dye (Molecular Devices) in Hank's balanced salt solution (Invitrogen)) was added, and the cells were incubated for 60 min under the conditions of 37° C., 5% CO2. A test compound was dissolved in dimethyl sulfoxide (Sigma Aldrich) to 10 mM, and then diluted with assay buffer 2 (20 mM HEPES, Hank's balanced salt solution, 0.1% bovine serum albumin). For the reaction, a test compound solution (10 μl) was added using Fluorescent Imaging Plate Reader TETRA (FLIPR TETRA: manufactured by Molecular Devices), a fluorescence value (excitation wavelength 488 nm, measurement wavelength 570 nm) of each well was measured every one second for 2 min, and the agonist activity was determined using the area of the fluorescence value as an indicator of intracellular Ca^2+ concentration. The agonist activity of the test compound was calculated assuming that the fluorescence value of the well added with only the dilution buffer was 0% and the fluorescence value of the well added with 10 nM human orexin A (Tocris) buffer was 100%.
Values of hOx2 pEC50 in Table B are presented in ranges, in which 6.0≤“+”<7.0, 7.0≤“++”<8.0, 8.0≤“+++”<9.0, and 9.0≤“++++”<10.4.

Row | Compound | EC50 [nM] | hOx2 pEC50
1 | O=C1CCOc2c(F)cccc2-c2cccc(c2)C[C@H]2[C@@H](NS(=O)(=O)C(F)F)CCCN12 [Example 24, 1,1-difluoro-N-((4^2S,4^3S)-1^3-fluoro-5-oxo-8-oxa-4(2,1)-piperidina-1(1,2),2(1,3)-dibenzenacyclooctaphane-4^3-yl)methanesulfonamide] | 1 to 10 | 
2 | CCS(=O)(=O)N[C@@H]1[C@@H]2Cc3cccc(c3)-c3ccccc3OCCN(C)C(=O)N2CC1(F)F [Example 23, N-((4^2S,4^3R)-4^4,4^4-difluoro-6-methyl-5-oxo-9-oxa-6-aza-4(2,1)-pyrrolidina-1(1,2),2(1,3)-dibenzenacyclononaphane-4^3-yl)ethanesulfonamide] | 1 to 10 | 
3 | N-((2′S,3′S)-3′-fluoro-6′-methyl-5′-oxospiro[cyclopropane-1,4′-9-oxa-6-aza-4(2,1)-pyrrolidina-1(1,2),2(1,3)-dibenzenacyclononaphan]-3′-yl)ethanesulfonamide [Example 19] |  | +++ (8.0≤“+++”<9.0)
4 | CC(C)S(=O)(=O)N[C@H]1[C@@H](F)CN2C(=O)N(C)CCOc3ccccc3-c3cccc(c3F)C[C@@H]12 [Example 35, N-((4^2S,4^3R,4^4S)-2^2,4^4-difluoro-6-methyl-5-oxo-9-oxa-6-aza-4(2,1)-pyrrolidina-1(1,2),2(1,3)-dibenzenacyclononaphane-4^3-yl)propane-2-sulfonamide] | 1 to 10 | 
5 | CCN1CCOc2ccccc2-c2cccc(c2)C[C@H]2[C@@H](NS(=O)(=O)CF)C3(CC3)CN2C1=O [Example 37, N-((2′S,3′S)-6′-ethyl-5′-oxospiro[cyclopropane-1,4′-9-oxa-6-aza-4(2,1)-pyrrolidina-1(1,2),2(1,3)-dibenzenacyclononaphan]-3′-yl)-1-fluoromethanesulfonamide] | 0.0398 to 1 | 
6 | CCS(=O)(=O)N[C@H]1CCCN2C(=O)CCOc3ccccc3-c3cccc(c3F)C[C@@H]12 [Example 27, N-((4^2S,4^3S)-22-fluoro-5-oxo-8-oxa-4(2,1)-piperidina-1(1,2),2(1,3)-dibenzenacyclooctaphane-4^3-yl)ethanesulfonamide] | 1 to 10 | 
7 | CN1CCOc2c(F)cccc2-c2cccc(c2)C[C@H]2[C@@H](NS(=O)(=O)CF)[C@@H](F)CN2C1=O [Example 21, N-((4^2S,4^3R,4^4S)-1^3,4^4-difluoro-6-methyl-5-oxo-9-oxa-6-aza-4(2,1)-pyrrolidina-1(1,2),2(1,3)-dibenzenacyclononaphane-4^3-yl)-1-fluoromethanesulfonamide] | 1 to 10 | 
8 | CCN1CCOc2ccccc2-c2cccc(c2)C[C@H]2[C@@H](NS(=O)(=O)C(F)F)C3(CC3)CN2C1=O [Example 10, N-((2′S,3′S)-6′-ethyl-5′-oxospiro[cyclopropane-1,4′-9-oxa-6-aza-4(2,1)-pyrrolidina-1(1,2),2(1,3)-dibenzenacyclononaphan]-3′-yl)-1,1-difluoromethanesulfonamide] | 1 to 10 | 
9 | O=C1CCOc2c(F)cc(F)cc2-c2cccc(c2)C[C@H]2[C@@H](NS(=O)(=O)CF)CCCN12 [Example 13, N-((4^2S,4^3S)-1^3,1^5-difluoro-5-oxo-8-oxa-4(2,1)-piperidina-1(1,2),2(1,3)-dibenzenacyclooctaphane-4^3-yl)-1-fluoromethanesulfonamide] | 1 to 10 | 
10 | CN1CCOc2c(F)cccc2-c2cccc(c2F)C[C@H]2[C@@H](NS(=O)(=O)CF)[C@@H](F)CN2C1=O [Example 12, 1-fluoro-N-((4^2S,4^3R,4^4S)-1^3,2^2,4^4-trifluoro-6-methyl-5-oxo-9-oxa-6-aza-4(2,1)-pyrrolidina-1(1,2),2(1,3)-dibenzenacyclononaphane-4^3-yl)methanesulfonamide] | 1 to 10 | 
11 | O=C1CCOc2ccccc2-c2cccc(c2F)C[C@H]2[C@@H](NS(=O)(=O)C3(F)CC3)CCCN12 [Example 36, 1-fluoro-N-((4^2S,4^3S)-2^2-fluoro-5-oxo-8-oxa-4(2,1)-piperidina-1(1,2),2(1,3)-dibenzenacyclooctaphane-4^3-yl)cyclopropane-1-sulfonamide] | 1 to 10 | 
12 | CCS(=O)(=O)N[C@H]1[C@@H](F)CN2C(=O)N(C)CCOc3c(F)cccc3-c3cccc(c3)C[C@@H]12 [Example 16, N-((4^2S,4^3R,4^4S)-1^3,4^4-difluoro-6-methyl-5-oxo-9-oxa-6-aza-4(2,1)-pyrrolidina-1(1,2),2(1,3)-dibenzenacyclononaphane-4^3-yl)ethanesulfonamide] | 1 to 10 | 
13 | CN1CCOc2c(F)cc(F)cc2-c2cccc(c2)C[C@H]2[C@@H](NS(=O)(=O)C(F)F)C3(CC3)CN2C1=O [Example 31, N-((2′S,3′S)-3′,5′-difluoro-6′-methyl-5′-oxospiro[cyclopropane-1,4′-9-oxa-6-aza-4(2,1)-pyrrolidina-1(1,2),2(1,3)-dibenzenacyclononaphan]-3′-yl)-1,1-difluoromethanesulfonamide] | 10 to 100 | 
14 | CCS(=O)(=O)N[C@@H]1[C@@H]2Cc3cccc(c3F)-c3cccc(F)c3OCCN(C)C(=O)N2CC12CC2 [Example 9, N-((2′S,3′S)-2′,3′-difluoro-6′-methyl-5′-oxospiro[cyclopropane-1,4′-9-oxa-6-aza-4(2,1)-pyrrolidina-1(1,2),2(1,3)-dibenzenacyclononaphan]-3′-yl)ethanesulfonamide] | 1 to 10 | 
15 | C[C@H]1CN2C(=O)N(C)CCOc3ccccc3-c3cccc(c3F)C[C@H]2[C@H]1NS(=O)(=O)CF [Example 2, 1-fluoro-N-((4^2S,4^3S,4^4S)-2^2-fluoro-4^4,6-dimethyl-5-oxo-9-oxa-6-aza-4(2,1)-pyrrolidina-1(1,2),2(1,3)-dibenzenacyclononaphane-4^3-yl)methanesulfonamide] | 10 to 100 | 
16 | C[C@@H](F)S(=O)(=O)N[C@H]1CCCN2C(=O)CCOc3ccccc3-c3cccc(c3)C[C@@H]12 [Example 28, (S)-1-fluoro-N-((4^2S,4^3S)-5-oxo-8-oxa-4(2,1)-piperidina-1(1,2),2(1,3)-dibenzenacyclooctaphane-4^3-yl)ethane-1-sulfonamide] | 0.0398 to 1 | 
17 | CCS(=O)(=O)N[C@H]1[C@@H](F)CN2C(=O)CCOc3ccccc3-c3cccc(c3F)C[C@@H]12 [Example 29, N-((4^2S,4^3R,4^4S)-2^2,4^4-difluoro-5-oxo-8-oxa-4(2,1)-pyrrolidina-1(1,2),2(1,3)-dibenzenacyclooctaphane-4^3-yl)ethanesulfonamide] | 1 to 10 | 
18 | CN1CCOc2c(F)cccc2-c2cccc(c2)C[C@H]2[C@@H](NS(=O)(=O)C(F)F)[C@@H](F)CN2C1=O [Example 20, N-((4^2S,4^3R,4^4S)-1^3,4^4-difluoro-6-methyl-5-oxo-9-oxa-6-aza-4(2,1)-pyrrolidina-1(1,2),2(1,3)-dibenzenacyclononaphane-4^3-yl)-1,1-difluoromethanesulfonamide] | 1 to 10 | 
19 | CCS(=O)(=O)N[C@H]1[C@@H](F)CN2C(=O)N(C)CCOc3ccccc3-c3cccc(c3F)C[C@@H]12 [Example 17, N-((4^2S,4^3R,4^4S)-2^2,4^4-difluoro-6-methyl-5-oxo-9-oxa-6-aza-4(2,1)-pyrrolidina-1(1,2),2(1,3)-dibenzenacyclononaphane-4^3-yl)ethanesulfonamide] | 1 to 10 | 
20 | CN1CCOc2ccccc2-c2cccc(c2)C[C@H]2[C@@H](NS(=O)(=O)C(C)(C)F)C3(CC3)CN2C1=O [Example 38, 2-fluoro-N-((2′S,3′S)-6′-methyl-5′-oxospiro[cyclopropane-1,4′-9-oxa-6-aza-4(2,1)-pyrrolidina-1(1,2),2(1,3)-dibenzenacyclononaphan]-3′-yl)propane-2-sulfonamide] | 1 to 10 | 
21 | O=C1CCOc2c(F)cc(F)cc2-c2cccc(c2)C[C@H]2[C@@H](NS(=O)(=O)C(F)F)CCCN12 [Example 14, N-((4^2S,4^3S)-1^3,1^5-difluoro-5-oxo-8-oxa-4(2,1)-piperidina-1(1,2),2(1,3)-dibenzenacyclooctaphane-4^3-yl)-1,1-difluoromethanesulfonamide] | 1 to 10 | 
